Earlier results as cited in patent US12391711B2 (priority 2020, dated 2025).

Details: human, Pain Res. Manag., 2005, 10: 15A-22A

For `CCCCCc1cc(O)c2c(c1)OC(C)(C)[C@@H]1CCC(C)=C[C@@H]21` [THC, (6aR,10aR)-6,6,9-trimethyl-3-pentyl-6a,7,8,10a-tetrahydro-6H-benzo[c]chromen-1-ol], the oral bioavailability is given as 4%-12%.
